Results: patent US6897210B2, “Quinazoline derivatives and pharmaceutical compositions containing them” (Zeneca Limited, priority 1996, dated 2005)

How the values were obtained:
[1] = tested on: VEGF receptor tyrosine kinase (Flt, KDR); assay: In vitro receptor tyrosine kinase inhibition test (VEGF receptor); format: biochemical; conditions: VEGF receptor tyrosine kinase compared with EGF receptor tyrosine kinase
From the text: (a) In Vitro Receptor Tyrosine Kinase Inhibition Test
This assay determines the ability of a test compound to inhibit tyrosine kinase activity. […] These may then be expressed in a suitable expression system to obtain polypeptide with tyrosine kinase activity. […] This recombinant construct was co-transfected into insect cells (for example Spodoptera frugiperda 21(Sf21)) with viral DNA (eg Pharmingen BaculoGold) to prepare recombinant baculovirus.
For expression of cFlt tyrosine kinase activity, Sf21 cells were infected with plaque-pure cFlt recombinant virus at a multiplicity of infection of 3 and harvested 48 hours later. […] The suspension was centrifuged for 10 minutes at 13,000 rpm at 4° C., the supernatant (enzyme stock) was removed and stored in aliquots at −70° C. Each new batch of stock enzyme was titrated in the assay by dilution with enzyme diluent (100 mM Hepes pH 7.4, 0.2 mM sodium orthovanadate. 0.1% v/v Triton X100, 0.2 mM dithiothreitol). For a typical batch, stock enzyme is diluted 1 in 2000 with enzyme diluent and 50 μl of dilute enzyme is used for each assay well.
A stock of substrate solution was prepared from a random copolymer containing tyrosine, for example Poly (Glu, Ala, Tyr) 6:3:1 (Sigma P3899), stored as 1 mg/ml stock in PBS at −20° C. and diluted 1 in 500 with PBS for plate coating.
On the day of the assay the substrate solution was discarded and the assay plate wells were washed once with PBST (PBS containing 0.05% v/v Tween 20) and once with 50 mM Hepes pH7.4.
Test compounds were diluted with 10% dimethylsulphoxide (DMSO) and 25 μl of diluted compound was transferred to wells in the washed assay plates. “Total” control wells contained 10% DMSO instead of compound. Twenty five microliters of 40 mM manganese(II)chloride containing 8 μM adenosine-5′-triphosphate (ATP) was added to all test wells except “blank” control wells which contained maganese(II)chloride without ATP. To start the reactions 50 μl of freshly diluted enzyme was added to each well and the plates were incubated at room temperature for 20 minutes. The liquid was then discarded and the wells were washed twice with PBST. […] Plates were then incubated for 20-60 minutes at room temperature until the optical density value of the “total” control wells, measured at 405 nm using a plate reading spectrophotometer, was approximately 1.0.

Row | activity against VEGF and EGF receptor tyrosine kinases [1] | melting point [°C] | SMILES
1 |  | 202 to 203 | COc1cc2c(Nc3ccc(Cl)cc3F)ncnc2cc1OCCN1C(=O)CCCC1=O [Example 35, 4-(4-chloro-2-fluoroanilino)-7-(2-(2,6-dioxopiperidino)ethoxy)-6-methoxyquinazoline]
2 | substantially equivalent activity |  | COc1cc2c(Nc3ccc(Cl)cc3F)ncnc2cc1OCCOCCN1CCOCC1.Cl [Example 53, 4-(4-chloro-2-fluoroanilino)-6-methoxy-7-(22-morpholinoethoxy)ethoxy)quinazoline hydrochloride]
3 | substantially equivalent activity |  | COc1cc2c(Nc3ccc(Br)cc3F)ncnc2cc1OCCCN1CCCC1=O.Cl [Example 48]
4 | substantially equivalent activity |  | COc1cc2c(Nc3ccc(Br)cc3F)ncnc2cc1OCCCN(C)S(C)(=O)=O.Cl [Example 49, 4(4bromo-2-fluoroanilino)-6-methoxy-7-(3([N-methyl-N-methylsulphonyl]amino)propoxy)quinazoline hydrochloride]
5 | substantially equivalent activity |  | COc1cc2c(Nc3ccc(Cl)cc3F)ncnc2cc1OCCN1CCOCC1=O.Cl [Example 52, 4-(4-chloro-2-fluoroanilino)6-methoxy-7-(2-(3-oxomorpholino)ethoxy)quinazoline hydrochloride]
6 | substantially equivalent activity |  | COc1cc2c(Nc3ccc(Cl)cc3F)ncnc2cc1OCCCN1CCC[C@H]1C(N)=O.Cl [Example 54, (S)-7-(3-(2-carbamoylpyrrolidin-1-yl)propoxy)4-(4-chloro-2-fluoroanilino)-6-methoxyquinazoline hydrochloride]
7 | substantially equivalent activity |  | COc1cc2c(Nc3ccc(Cl)cc3F)ncnc2cc1OCCCN1CCCC1=O.Cl [Example 47, 4-(4-chloro-2-fluoroanilino)-6-methoxy-7-(3-(2-oxopyrrolidin-1-yl)propoxy)quinazoline hydrochloride]
8 |  | > 250 | COc1cc2c(Nc3ccc(Br)cc3F)ncnc2cc1OCCCS(C)(=O)=O [Example 32, 4-(4-bromo-2-fluoroanilino)6-methoxy-7-(3-methylsulphonylpropoxy)quinazoline]
9 | substantially equivalent activity |  | COc1cc2c(Nc3ccc(Br)cc3F)ncnc2cc1OCCN1CCCC1=O.Cl [Example 68, 4-(4-bromo-2-fluoroanilino)methoxy-7-(2-(2-oxpyrrolidin-1-yl)ethoxy)quinazoline hydrochloride]
10 | substantially equivalent activity |  | COc1cc2c(Nc3ccc(Cl)cc3F)ncnc2cc1OC/C=C/CN1CCOCC1.Cl [Example 66, (E)-4-(4-chloro-2-fluoroanilino)-6-methoxy-7-(4-morpholinobut-2-en-1-yloxy)quinazoline hydrochloride]
11 | substantially equivalent activity |  | COc1cc2c(Nc3ccc(Br)cc3F)ncnc2cc1OCCN1CCOCC1=O.Cl [Example 67, 4-(4-bromo-2-fluoroanilino)-6-methoxy-7-(2-(3 oxomorpholino)ethoxy)quinazoline hydrochloride]
12 | substantially equivalent activity |  | COc1cc2c(Nc3ccc(Br)cc3F)ncnc2cc1OCCCN1CCC[C@H]1C(N)=O.Cl [Example 50, (S)-4-(4-bromo-2-fluoroanilino)-7-(3-(2-carbamoylpyrrolidin-1-yl)propoxy)6-methoxyquinazoline hydrochloride]

Further lines, the molecule ahead of its results:

Row | SMILES | activity against VEGF and EGF receptor tyrosine kinases [1] | melting point [°C]
13 | COc1cc2c(Nc3ccc(Cl)cc3F)ncnc2cc1OCC1OCCO1 [Example 6, 4-(4-chloro-2-fluoroanilino)-7-(1,3-dioxolan-2-ylmethoxy)-6-methoxyquinazoline] | substantially equivalent activity | 
14 | COc1cc2c(Nc3ccc(Cl)cc3F)ncnc2cc1OCCS(C)(=O)=O [Example 30, 4-(4-chloro-2-fluoroanilino)-6-methoxy-7-(2-methylsulphonylethoxy)quinazoline] |  | 227 to 230
15 | COc1cc2ncnc(Nc3ccc(C)c(O)c3)c2c([N+](=O)[O-])c1OC.Cl |  | 206 to 208
16 | Cl.Fc1cc(Cl)ccc1NCOc1ncnc2cc(SCCCN3CCOCC3)ccc12 [Example 56, 4-(4-chloro-2-fluoroanilino)methoxy-7-(3-morpholinopropylthio)quinazoline hydrochloride] | substantially equivalent activity | 
17 | COc1cc2c(Nc3ccc(Cl)cc3F)ncnc2cc1OCCCS(C)(=O)=O [Example 16, 4-(4-chloro-2-fluoroanilino)-6-methoxy-7-(3-(methylsulphonyl)propoxy)quinazoline] | substantially equivalent activity | 
18 | COc1cc2c(Nc3ccc(Cl)cc3F)ncnc2cc1OCCCN(C)S(C)(=O)=O.Cl [Example 59] | substantially equivalent activity | 
19 | COc1cc2c(Nc3ccc(Cl)cc3F)ncnc2cc1OCCOCCN1CCCC1.Cl [Example 64, 4-(4-chloro-2-fluoroanilino)-6-methoxy-7-(2-(2-pyrrolidin-1-ylethoxy)ethoxy)quinazoline hydrochloride] | substantially equivalent activity | 
20 | COc1cc2c(Nc3ccc(Cl)cc3F)ncnc2cc1OCCCN1CC(C)OC(C)C1.Cl (centres unmarked) [Example 55, 4-(4-chloro-2-fluoroanilino)7(3(2,6-dimethylmorpholino)propoxy)6-methoxyquinazoline hydrochloride] | substantially equivalent activity | 
21 | COc1cc2c(Nc3ccc(Cl)cc3F)ncnc2cc1OCCOCCN1CCN(C)CC1.Cl [Example 63] | substantially equivalent activity | 
22 | COCCOCCOc1cc2ncnc(Nc3ccc(Cl)cc3F)c2cc1OC.Cl [Example 5, 4-(4-chloro-2-fluoroanilino)6-methoxy-7-(2(2-methoxyethoxy)ethoxy)quinazoline hydrochloride] | substantially equivalent activity | 
23 | COc1cc2c(Nc3ccc(Cl)cc3F)ncnc2cc1OCC#CCN1CCOCC1.Cl.O (hydrate or solvate) [Example 10, 4-(4-chloro-2-fluoroanilino)-6-methoxy-7-(4-morpholinobut-2-yn-1-yloxy)quinazoline hydrochloride hydrate] |  | 175 to 178
24 | COc1cc2c(Nc3ccc(Cl)cc3F)ncnc2cc1OCC#CCN1CCOCC1.Cl.O [Example 10, 4-(4-chloro-2-fluoroanilino)-6-methoxy-7-(4-morpholinobut-2-yn-1-yloxy)quinazoline hydrochloride hydrate] | substantially equivalent activity | 
25 | COCC(=O)N(C)CCOc1cc2ncnc(Nc3ccc(Cl)cc3F)c2cc1OC.Cl [Example 51, 4-(4-chloro-2-fluoroanilino) methoxy-7-(2-([N-methyl-N-methoxyacetyl]amino)ethoxy)quinazoline hydrochloride] | substantially equivalent activity | 
26 | COc1cc2c(Nc3ccc(Cl)cc3F)ncnc2cc1OC/C=C/CN1CCCC1.Cl [Example 17] | substantially equivalent activity | 
